Patent US11066414B2, “Cot modulators and methods of use thereof” (Gilead Sciences, Inc., priority 2015, dated 2021)
Where two headings read alike, the source gives them in different places.

Tests used:
[1] = system: TNFα; experiment: Cot Monocyte TNFα Cell Based Assay
[2] = biological target: Human Cot (Homo sapiens (Human), UniProt P41279); experiment: High Throughput Cot Biochemical Assay
[3] = Homo sapiens, Monocyte, read-out: EC50 TNF, LPS-stimulated human monocytes, TNFα TR-FRET
[4] = IC50 HTRF, Cot HTRF (TR-FRET KinEASE) biochemical assay, 400 μM ATP
[5] = read-out: EC50 TNF, LPS-stimulated human monocytes, TNFα
[6] = read-out: IC50 HTRF, Cot HTRF (TR-FRET) biochemical assay
[7] = Homo sapiens, Monocyte, read-out: EC50 TNF, LPS-stimulated human monocytes, TNFα
[8] = IC50 HTRF, Cot HTRF (TR-FRET) biochemical assay

Human Cot, sequence (P41279 30-397): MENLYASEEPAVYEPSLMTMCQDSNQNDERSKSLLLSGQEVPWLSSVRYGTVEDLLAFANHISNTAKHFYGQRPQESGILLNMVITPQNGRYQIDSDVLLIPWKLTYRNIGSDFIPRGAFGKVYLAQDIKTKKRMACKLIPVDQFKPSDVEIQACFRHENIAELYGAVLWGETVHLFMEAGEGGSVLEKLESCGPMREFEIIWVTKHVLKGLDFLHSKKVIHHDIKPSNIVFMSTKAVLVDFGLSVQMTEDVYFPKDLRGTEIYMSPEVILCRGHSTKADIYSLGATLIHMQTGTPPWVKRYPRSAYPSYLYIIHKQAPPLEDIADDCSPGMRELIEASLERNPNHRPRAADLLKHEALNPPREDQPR

SMILES | EC50 [1, 7] [nM] | IC50 [2, 8] [nM] | further results
CC(C)(CNc1c(C#N)cnc2c(Cl)cc(N[C@H](c3cn(C4(C(F)F)CC4)nn3)c3ccc(F)c4ncccc34)cc12)C(F)(F)F [Example 918, (S)-8-chloro-6-(((1-(1-(difluoromethyl)cyclopropyl)-1H-1,2,3-triazol-4-yl)(8-fluoroquinolin-5-yl)methyl)amino)-4-((3,3,3-trifluoro-2,2-dimethylpropyl)amino)quinoline-3-carbonitrile] |  |  | EC50 [1, 3]: 42 nM; IC50 [2, 4]: 3 nM
N#Cc1cnc2c(Cl)cc(N[C@@H](c3cccnc3)c3cn(CCN4CCOCC4)nn3)cc2c1Nc1ccc(F)c(Cl)c1 [Example 335, (S)-8-chloro-4-((3-chloro-4-fluorophenyl)amino)-6-(((1-(2-morpholinoethyl)-1H-1,2,3-triazol-4-yl)(pyridin-3-yl)methyl)amino)-quinoiine-3-carbonitrile] |  |  | EC50 [1, 5]: 405 nM; IC50 [2, 6]: 10 nM
Cc1nc(F)ccc1[C@H](Nc1cc(Cl)c2ncc(C#N)c(NCC(C)(C)C)c2c1)c1nnn(C2CC2)c1I [Example 643, (S)-8-chloro-6-(((1-cyclopropyl-S-iodo-1H-1,2,3-triazol-4-yl)(6-lluoro-2-methylpyridin-3-yl)methyl)amino)-4-(neopentylamino)quinoline-3-carbonitrile] |  |  | EC50 [1, 5]: 1000 nM; IC50 [2, 6]: 5 nM
CC(C)n1cc([C@@H](Nc2cc(Cl)c3ncc(C#N)c(Nc4ccc(F)c(Cl)c4)c3c2)C2=CCOCC2)nn1 [Example 244, (S)-8-chloro-4-((3-chloro-4-fluorophenyl)amino)-6-(((3,6-dihydro-2H-pyran-4-yl)(1-isopropyl-1H-1,2,3-triazol-4-yl)methyl)amino)quinoline-3-carbonitrile] | 328 | 4 | 
Cc1nc(F)ccc1[C@H](Nc1cc(Cl)c2ncc(C#N)c(NCC(C)(C)C)c2c1)c1cn(C(CF)CF)nn1 [Example 762, (S)-8-chloro-6-(((1-(1,3-difluoropropan-2-yl)-1H-1,2,3-triazol-4-yl)(6-fluoro-2-methylpyridin-3-yl)methyl)amino)-4-(neopentylamino)quinoline-3-carbonitrile] | 50 | 3 | 
CC(C)(C)N1CCC(n2cc([C@@H](Nc3cc(Cl)c4ncc(C#N)c(Nc5ccc(F)c(Cl)c5)c4c3)c3ccc(F)nc3)nn2)CC1 [Example 347, (S)-6-(((1-(1-(tert-butyl)piperidin-4-yl)-1H-1,2,3-triazol-4-yl)(6-fluoropyridin-3-yl)methyl)amino)-8-chloro-4-((3-chloro-4-fluorophenyl)amino)quinoline-3-carbonitrile] | 278 | 4 | 
Cn1c(=O)ccc2c([C@H](Nc3cc(C#N)c4ncc(C#N)c(NCC(C)(C)C)c4c3)c3cn(C45CC(C4)C5)nn3)cccc21 [Example 887, (S)-6-(((1-(bicyclo[1.1.1]pentan-1-yl)-1H-1,2,3-triazol-4-yl)(1-methyl-2-oxo-1,2-dihydroquinolin-5-yl)methyl)amino)-4-(neopentylamino)quinoline-3,8-dicarbonitrile] |  |  | EC50 [1, 3]: 33 nM; IC50 [2, 4]: 3 nM
COc1nccc2c([C@H](Nc3cc(C#N)c4ncc(C#N)c(NCC(C)(C)C(F)(F)F)c4c3)c3cn(C4(C)CC4)nn3)cccc12 [Example 819, (S)-6-(((1-methoxylsoquinolin-5-yl)(1-(1-methylcyclopropyl)-1H-1,2,3-triazol-4-yl)methyl)amino)-4-((3,3,3-trifluoro-2,2-dimethylpropyl)amino)quinoline-3,8-dicarbonitrile] |  |  | EC50 ([1]; read-out: EC50 TNF, LPS-stimulated human monocytes, TNFα TR-FRET): 28 nM; IC50 ([2]; read-out: IC50 HTRF, Cot HTRF (TR-FRET KinEASE) biochemical assay, 400 μM ATP): 2 nM
Cc1nc(F)ccc1[C@H](Nc1cc(C#N)c2ncc(C#N)c(NCC(C)(C)C)c2c1)c1cn(CC2(C(F)(F)F)CC2)nn1 [Example 839, (S)-6-(((6-fluoro-2-methylpyridin-3-yl)(1-((1-(trifluoromethyl)cyclo-propyl)methyl)-1H-1,2,3-triazol-4-yl)methyl)amino)-4-(neopentylamino)quinoline-3,8-dicarbonitrile] |  |  | EC50 [1, 3]: 94 nM; IC50 [2, 4]: 6 nM
N#Cc1cnc2c(Cl)cc(N[C@H](c3cn(C4COC4)nn3)c3ccc(Cl)nc3Cl)cc2c1Nc1ccc(F)c(Cl)c1 [Example 322, (S)-8-chloro-4-((3-chloro-4-fluorophenyl)amino)-6-(((2,6-dichloro-pyridin-3-yl)(1-(oxetan-3-yl)-1H-1,2,3-triazol-4-yl)methyl)amino)quinoline-3-carbonitrile] | 369 | 33 | 
[2H][C@@](Nc1cc(Cl)c2ncc(C#N)c(N[C@H](CC)c3ccccc3)c2c1)(c1cn(C2CC2)nn1)c1cccnc1F [Example 105, 8-chloro-6-(((S)-(1-cyclopropyl-1H-1,2,3-triazol-4-yl)(2-fluoropyridin-3-yl)methyl-d)amino)-4-(((R)-1-phenylpropyl)amino)quinoline-3-carbonitrile] | 144 | 3 | 
Cc1nc(F)ccc1[C@@H](Nc1cc(Cl)c2ncc(C#N)c(NCC(C)(C)C)c2c1)c1cn(C2(C(F)F)CC2)nn1 [Example 509, (R)-8-chloro-6-(((1-(1-(difluoromethyl)-cyclopropyl)-1H-1,2,3-triazol-4-yl)(6-fluoro-2-methylpyridin-3-yl)methyl)amino)-4-(neopentylamino)quinoline-3-carbonitrile] | 1000 | 267 | 
CC[C@@H](Nc1c(C#N)cnc2c(Cl)cc(NC(c3cn(C4CC4)nn3)c3cccnc3Cl)cc12)c1ccccc1 (stereo partly drawn) [Example 124, 8-chloro-6-(((2-chloropyridin-3-yl)(1-cyclopropyl-1H-1,2,3-triazol-4-yl)methyl-d)amino)-4-(((R)-1-phenylpropyl)amino)quinolme-3-carbonitrile] |  |  | EC50 [1, 5]: 376 nM; IC50 [2, 6]: 8 nM

Second part, led by results:

EC50 [1, 7] [nM] | IC50 [2, 8] [nM] | SMILES | further results
287 | 11 | CC(C)(C)CNc1c(C#N)cnc2c(Cl)cc(N[C@H](c3cn(C4(C(F)(F)F)CC4)nn3)c3cccn4nccc34)cc12 [Example 560, (S)-8-chloro-4-(neopentylamino)-6-((pyrazolo[1,5-a]pyridin-4-yl(1-(1-(trifluoromethyl)cyclopropyl)-1H-1,2,3-triazol-4-yl)methyl)amino)quinoline-3-carbonitrile] | 
30 | 4 | C[C@@H](CF)n1cc([C@@H](Nc2cc(Cl)c3ncc(C#N)c(NCC(C)(C)C)c3c2)c2cccc3c(=O)n(C)ccc23)nn1 [Example 778, 8-chloro-6-(((S)-(1-((S)-1-fluoropropan-2-yl)-1H-1,2,3-triazol-4-yl)(2-methyl-1-oxo-1,2-dihydroisoquinolin-5-yl)methyl)amino)-4-(neopentylamino)quinoline-3-carbonitrile] | 
184 | 9 | CC(=O)c1cc(N[C@H](c2cn(C3(C(F)(F)F)CC3)nn2)c2cccc3ncsc23)cc2c(NCC(C)(C)C)c(C#N)cnc12 [Example 453, (S)-8-acetyl-6-((benzo[d]thiazol-7-yl(1-(1-(trifluoromethyl)cyclopropyl)-1H-1,2,3-triazol-4-yl)methyl)amino)-4-(neopentylamino)quinoline-3-carbonitrile] | 
112 | 6 | CC(C)(C)CNc1c(C#N)cnc2c(Cl)cc(N[C@H](c3cn(C4(C(F)(F)F)CC4)nn3)c3cccc4c(=O)[nH]ccc34)cc12 [Example 676, (S)-8-chloro-4-(neopentylamino)-6-(((1-oxo-1,2-dihydroisoquinolin-5-yl)(1-(1-(trifluoromethyl)cyclopropyl)-1H-1,2,3-triazol-4-yl)methyl)amino)quinoline-3-carbonitrile] | 
